Results as given in PMC4879371, “Antitrypanosomal Activities and Mechanisms of Action of Novel Tetracyclic Iridoids from Morinda lucida Benth” (Antimicrobial Agents and Chemotherapy, 2016).
“Also recorded” adds a separate entry of the source.

What was measured:
[1] = MTT cytotoxicity assay, Chang Liver; assay type: cell-based, human; conditions: human, Chang Liver cells; Chang liver normal liver, 48 h
Experimental: (§1) The cytotoxicity of the compounds to mammalian cells were determined using four human normal cell lines, namely, NB1RGB (skin fibroblast) and HF-19 (lung fibroblast) obtained from the RIKEN Bio Resource Center Cell Bank (Japan) and Chang Liver and Hs888Lu (lung) obtained from the European Collection of Authenticated Cell Cultures (ECACC). NB1RGB and HF-19 were maintained in minimum essential medium-α (MEM-α). Chang Liver and Hs888Lu were grown in Eagle's minimum essential medium (EMEM) and RPMI 1640, respectively. All of these media were supplemented with 10% fetal bovine serum (FBS) and 1% penicillin-streptomycin and were then incubated at 37°C under 5% CO2 in fully humidified conditions.
(§2) Cytotoxicity was determined using a 3-(4,5-dimethylthiazol-2-yl)-2,5-diphenyltetrazolium bromide (MTT) assay. The cells were treated with molucidin, ML-2-3, or ML-F52 at concentrations of ≤50 μM for 48 h. Cells were plated at a density of 0.5 × 10^4 cells/well into 96-well plates. After 24 h of incubation, cells were treated with various concentrations of each of the purified compounds for 48 h. Then, MTT solution was added to each well, and the cells were incubated for another 4 h. The precipitated MTT-formazan product was dissolved in 0.04 N HCl-isopropanol, and the amount of formazan was measured at a wavelength of 595 nm by a microplate reader (Immuno Mini NJ-2300; Nihon InterMed, Tokyo, Japan). Cytotoxicity was calculated as the percentage of live cells relative to the control culture. The selectivity index (SI) was expressed as the ratio of the IC50 obtained for mammalian cells and the IC50 for trypanosomes.

Chang Liver = test: MTT cytotoxicity assay, Chang Liver; assay type: cell-based, human; conditions: IC50 Chang liver / IC50 trypanosomes
Experimental: as §1, §2

Plasmodium falciparum = test: Preliminary in vitro anti-Plasmodium activity; assay type: cell-based; conditions: preliminary studies, unpublished data
[2] = test system: paraflagellum rod protein subunit 2, PFR-2; test: PFR-2 expression, immunohistochemistry and Western blotting with anti-PFR-2 antibody; assay type: cell-based, Trypanosoma brucei brucei; conditions: for expression of PFR-2 protein: 24 h, 5 μM molucidin, 15 μM ML-2-3, 0.43 μM ML-F52
Experimental: (§3) To investigate the effect of the compounds on parasite morphology and their flagellum function, immunohistochemistry using anti-paraflagellum rod protein anti-PFR-2 antibody ([37]), was performed with molucidin-, ML-2-3-, and ML-F52-treated trypanosome parasites. […] Parasites were then harvested after incubation with or without appropriate concentrations of compounds and were fixed with 4% paraformaldehyde in 8-well chamber slides at room temperature for 5 min. Washing steps were carried out with 500 μl of phosphate-buffered saline (PBS) twice and 0.1% Triton X-100 in PBS (PBST) at room temperature for 5 min each. Blocking reagent (500 μl; 3% bovine serum albumin [BSA] in PBS) was added and incubated for 30 min at room temperature. Primary and secondary antibody incubation with parasites was done for 1 h each, and 4′,6-diamidino-2-phenylindole (DAPI) (5 μg/ml DAPI in PBS) staining was done for 10 min. After the washing steps presented above, the slides were mounted using PermaFluor mounting reagent and were covered with coverslips. The slides were observed under an Olympus fluorescence microscope (Olympus BX53) to detect any phenotypic changes in T. brucei brucei parasites.
Trypanosome parasites were incubated with or without compound in vitro and were lysed with 0.5% NP-40 ([38]). Protein concentration of the lysate was determined using the Bio-Rad protein assay reagents (Bio-Rad, USA). SDS-PAGE was run using Invitrogen NuPAGE 12% Bis-Tris gel. The proteins were blotted on a polyvinylidene difluoride (PVDF) membrane (Immobilon P; Millipore, USA), added with mouse anti-PFR-2 antibody, 1:500 dilution, and incubated at 4°C overnight. The membrane was then incubated with anti-mouse horseradish peroxidase (HRP) antibodies, 1:2,000 dilution, for an hour at room temperature. Chemiluminescence HRP substrates A and B (Immobilon Western; Millipore, USA) were added to the membrane in a ratio of 1:1. Detection was done using the ATTO cooled charge-coupled device (CCD) camera system EzCapture II (ATTO Corporation, Japan).
To investigate the sequence in which the events (apoptosis induction, PFR-2 suppression, and cell cycle alteration) involved in mechanisms of action occur, we examined the time course for the three events using ML-2-3-treated parasites. Trypanosoma brucei parasites were incubated for 0, 0.5, 1.5, 3, 6, and 24 h with 15 μM ML-2-3 and were then subjected to both Nexin assay and Western blot analyses using the PFR-2 antibody. We further investigated the time course of cell cycle alteration using ML-2-3-treated parasites at similar concentrations and incubation periods.

[3] = test system: T. brucei brucei parasites; test: Parasite morphology, DAPI / anti-PFR-2 immunohistochemistry; assay type: cell-based, Trypanosoma brucei brucei; conditions: 24 h; 5 μM molucidin, 15 μM ML-2-3, 0.43 μM ML-F52
Experimental: as §3

[4] = test system: Trypanosoma parasites (T. brucei brucei); test: FACS Nexin assay for apoptosis in trypanosome parasites; assay type: cell-based; conditions: 24 h; for minimum concentration inducing strong apoptosis: 0 μM to 50 μM tested; for apoptosis induction: molucidin 6.25 μM, ML-2-3 6.25 μM, ML-F52 0.78 μM
Experimental: Seeding and incubation of parasites with compounds were done under the same conditions as those for the alamarBlue assay as described above without addition of the alarmarBlue reagent. In this case, after 24 h of incubation, Guava reagents for Nexin and cell cycle assays were added, and each assay was performed using the Millipore Guava easyCyte 5HT fluorescence-activated cell sorter (FACS) machine according to the manufacturer's instruction. The Nexin assay and subsequent FACS analysis allowed for detection of markers of apoptosis induction by the plant materials. Similarly, the cell cycle assay and subsequent FACS analysis allowed for detection of markers of cell cycle alteration by the plant materials. […]

[5] = test system: T. brucei brucei (TC-221 strain); assay type: in vivo; conditions: for survival of mice / death, days postinfection: vehicle control died at day 9
Experimental: Six-week-old BALB/c female mice with an average weight of 20 g were infected with 1 × 10^3 cells of T. brucei brucei (TC-221 strain) and were randomly grouped into four cages containing five mice each. The first 3 groups were treated with 30 mg/kg of body weight of molucidin, ML-2-3, and ML-F52, respectively, 6 h postinfection and continued daily afterward for 5 consecutive days. The last group received physiological saline containing <0.1% of DMSO as a vehicle control. Parasitemia and weight were monitored daily until 20 days postinfection. The experiments were conducted in compliance with the internationally accepted principles for laboratory animal use and care as contained in the Canadian Council on Animal Care guidelines on animal use protocol review.

[6] = 30 mg/kg intraperitoneally, 5 consecutive days

Row | SMILES | IC50 at 48 h [1] | SI (selectivity index) (Chang Liver) | anti-Plasmodium activity in vitro (Plasmodium falciparum) | time of exposure to significant suppression of PFR-2 protein expression ([2]; 15 μM ML-2-3, time course Western blot) | expression of PFR-2 protein [2] | effect on nuclei and kinetoplast (DAPI) [3] | effect on parasite cell form [3] | minimum concentration inducing strong apoptosis [4] | early-stage apoptotic cells (lower right quadrant) ([4]; 6.25 μM) | late-stage apoptotic cells (upper right quadrant) ([4]; 6.25 μM) | apoptosis induction [4] | survival of mice / death, days postinfection [5, 6] | early-stage apoptotic cells (lower right quadrant) ([4]; 0.78 μM) | late-stage apoptotic cells (upper right quadrant) ([4]; 0.78 μM) | cure for 20 days postinfection [5, 6] | toxicity in mice ([5]; mouse, in vivo)
1 | COc1cc(/C=C2/C(=O)O[C@]34C=C[C@@H]5C(C(=O)O)=CO[C@H](O[C@@H]23)[C@@H]54)ccc1O [ML-2-3] | > 50 µM | >13.33 | anti-Plasmodium activities | ≤ 0.5 h | suppression of PFR-2 expression; also recorded: suppressed the expression of PFR-2 proteins | fragmented nuclei with normal kinetoplast | typical short stumpy form | 6.25 µM | 7.8% | 4.4% | significant apoptosis induction | 9 days |  |  |  | 
2 | CCOC(=O)C1=CO[C@@H]2O[C@H]3/C(=C\c4ccc(O)c(OC)c4)C(=O)O[C@]34C=C[C@H]1[C@H]24 [ML-F52] | 18.1 µM | 42.16 | anti-Plasmodium activities |  | suppression of PFR-2 expression; also recorded: suppressed the expression of PFR-2 proteins | fragmented nuclei with normal kinetoplast | abnormal cells that had two sets of kinetoplasts and flagellum with fragmented nuclei | 0.78 µM |  |  | strongest induction of apoptosis | 20 days | 14.2% | 2.3% | 100% | 
3 | COC(=O)C1=CO[C@@H]2O[C@H]3/C(=C\c4ccc(O)c(OC)c4)C(=O)O[C@]34C=C[C@H]1[C@H]24 [molucidin] | 9.34 µM | 7.35 | anti-Plasmodium activities |  | significant expression of PFR-2 | intact kinetoplast but totally disintegrated nuclei | stumpy-like parasites |  | 1.1% | 0% | no significant induction of apoptosis; also recorded: no significant apoptotic induction |  |  |  |  | severe toxicity
